Read-outs that look alike come from different tables or passages of the source. Ends that are not written are not given here.
Test: Solubility screening in trehalose matrices pH 2.65 to 7.03;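 note: test items are peptides, each checked for solubility in every trehalose matrix, the matrices made up in distilled deionised water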
Assay type: physicochemical
Details: for solubility: read-out: Solubility [mg per ml]
[1] = 2 mM HCl and 260 mM trehalose dihydrate, pH 2.65
[2] = 10 mM potassium dihydrogen phosphate and 260 mM trehalose dihydrate, pH 6.03
[3] = 10 mM potassium dihydrogen phosphate and 260 mM trehalose dihydrate, pH 7.03
[4] = 10 mM sodium citrate and 260 mM trehalose dihydrate, pH 3.01
[5] = 10 mM sodium citrate and 260 mM trehalose dihydrate, pH 3.99
[6] = 10 mM sodium citrate and 260 mM trehalose dihydrate, pH 5.02
[7] = 10 mM sodium citrate and 260 mM trehalose dihydrate, pH 6.01
[8] = aqueous buffer, 10 mM potassium dihydrogen phosphate and 260 mM trehalose dihydrate, pH 6.03
[9] = aqueous buffer, 10 mM potassium dihydrogen phosphate and 260 mM trehalose dihydrate, pH 7.03
[10] = aqueous buffer, 10 mM sodium citrate and 260 mM trehalose dihydrate, pH 3.01
[11] = aqueous buffer, 10 mM sodium citrate and 260 mM trehalose dihydrate, pH 3.99
[12] = aqueous buffer, 10 mM sodium citrate and 260 mM trehalose dihydrate, pH 5.02
[13] = aqueous buffer, 10 mM sodium citrate and 260 mM trehalose dihydrate, pH 6.01
[14] = water, 2 mM HCl and 260 mM trehalose dihydrate, pH 2.65

| Sequence | Comments (solubility on preparation) [1] | Solubility [mg per ml 'as is'] [1] [mg per ml ‘as is’] | Solubility [μmol per ml] [1] [μmol per ml] | Solubility after 24 Hours [1] | Solubility [mg per ml 'as is'] [2] [mg per ml ‘as is’] | Solubility [μmol per ml] [2] [μmol per ml] | Comments (solubility on preparation) [3] | Solubility [mg per ml 'as is'] [3] [mg per ml ‘as is’] | Solubility [μmol per ml] [3] [μmol per ml] | Solubility after 24 Hours [3] | Comments (solubility on preparation) [4] | Solubility [mg per ml 'as is'] [4] [mg per ml ‘as is’] | Solubility [μmol per ml] [4] [μmol per ml] | Solubility after 24 Hours [4] | Solubility [mg per ml 'as is'] [5] [mg per ml ‘as is’] | Solubility [μmol per ml] [5] [μmol per ml] | Solubility [mg per ml 'as is'] [6] [mg per ml ‘as is’] | Solubility [μmol per ml] [6] [μmol per ml] | solubility [8] [µg/mL] | solubility [9] [µg/mL] | further results |
| --- | --- | --- | --- | --- | --- | --- | --- | --- | --- | --- | --- | --- | --- | --- | --- | --- | --- | --- | --- | --- | --- |
| PGTIKKISFPEGFPFKYV [Bir04] | Completely dissolved | 20.50 | 8.639 | Completely dissolved | 9.86 | 4.155 | Completely dissolved | 21.50 | 9.061 | Completely dissolved | Completely dissolved | 22.58 | 9.516 | Completely dissolved | 20.36 | 8.580 | 21.52 | 9.069 | ≥ 8540 | ≥ 18600 | Commute (solubility on preparation) [2]: Completely dissolved; Solubility after 24 Hours [2]: Completely dissolved; Comments (solubility on preparation) [5]: Completely dissolved; Solubility after 24 Hours [5]: Completely dissolved; Comments (solubility on preparation) [6]: Completely dissolved; Solubility after 24 Hours [6]: Completely dissolved; Comments (solubility on preparation) [7]: Completely dissolved.; Solubility [mg per ml 'as is'] [7]: 10.11 mg per ml ‘as is’; Solubility [μmol per ml] [7]: 4.261 μmol per ml; Solubility after 24 Hours [7]: Completely dissolved.; solubility [10]: ≥ 19600 µg/mL; solubility [11]: ≥ 17600 µg/mL; solubility [12]: ≥ 18600 µg/mL; solubility [13]: ≥ 8760 µg/mL; solubility [14]: ≥ 17800 µg/mL |
| KEMGETLLRAVESYLLAHS [Bir09B] | Completely dissolved | 12.20 | 4.942 | Completely dissolved | 0.36 | 0.147 | Completely dissolved | 21.70 | 8.790 | Completely dissolved | Completely dissolved | 11.62 | 4.707 | Completely dissolved | 11.40 | 4.618 | 12.75 | 5.165 | ≥ 315 | ≥ 18900 | Commute (solubility on preparation) [2]: Completely dissolved in; Solubility after 24 Hours [2]: Precipitated out,; Comments (solubility on preparation) [5]: Completely dissolved; Solubility after 24 Hours [5]: Completely dissolved; Comments (solubility on preparation) [6]: Completely dissolved; Solubility after 24 Hours [6]: Completely dissolved; solubility [10]: ≥ 10100 µg/mL; solubility [11]: ≥ 9920 µg/mL; solubility [12]: ≥ 11100 µg/mL; solubility [14]: ≥ 10600 µg/mL |
| ETLLRAVESYLLAHSDAY [Bir09] | Completely dissolved• | 0.92 | 0.379 | Completely dissolved• | 0.35 | 0.143 | Completely dissolved | 1.52 | 0.627 | Completely dissolved | Undissolved in 1.5 mL• | 0.37 | 0.153 | Undissolved | 0.36 | 0.148 | 0.37 | 0.154 | ≥ 293 | ≥ 1290 | Solubility [mg per ml] [4]: 0.314 mg per ml; Comments (solubility on preparation) [7]: Completely dissolved; Solubility [mg per ml 'as is'] [7]: 1.03 mg per ml ‘as is’; Solubility [μmol per ml] [7]: 0.426 μmol per ml; Solubility after 24 Hours [7]: completely dissolved; solubility [11]: ≥ 303 µg/mL; solubility [12]: ≥ 315 µg/mL; solubility [13]: ≥ 875 µg/mL; solubility [14]: ≥ 777 µg/mL |
| SNEIKIVATPEGGSILK [Bir07C] | Completely dissolved | 11.48 | 5.747 | Completely dissolved | 0.42 | 0.208 | Completely dissolved | 6.70 | 3.354 | Completely dissolved | Completely dissolved | 1.30 | 0.653 | Completely dissolved | 0.38 | 0.188 | 0.86 | 0.433 | ≥ 365 | ≥ 5890 | Commute (solubility on preparation) [2]: Completely dissolved in; Solubility after 24 Hours [2]: Precipitated out,; Comments (solubility on preparation) [6]: Completely dissolved; Solubility after 24 Hours [6]: Completely dissolved; Comments (solubility on preparation) [7]: Completely dissolved in; Solubility [mg per ml 'as is'] [7]: 0.35 mg per ml ‘as is’; Solubility [μmol per ml] [7]: 0.174 μmol per ml; Solubility after 24 Hours [7]: Precipitated out,; solubility [10]: ≥ 1150 µg/mL; solubility [11]: ≥ 330 µg/mL; solubility [12]: ≥ 760 µg/mL; solubility [13]: ≥ 306 µg/mL; solubility [14]: ≥ 10100 µg/mL |
| AKYMVIQGEPGRVIRGK [Bir12B] | Completely dissolved | 10.22 | 4.490 | Completely dissolved | 23.84 | 10.474 | Completely dissolved | 20.62 | 9.060 | Completely dissolved | Completely dissolved | 5.47 | 2.403 | Completely dissolved | 10.32 | 4.534 | 5.84 | 2.564 | ≥ 19900 | ≥ 17200 | Commute (solubility on preparation) [2]: Completely dissolved; Solubility after 24 Hours [2]: Completely dissolved; Comments (solubility on preparation) [5]: Completely dissolved; Solubility after 24 Hours [5]: Completely dissolved; Comments (solubility on preparation) [6]: Completely dissolved; Solubility after 24 Hours [6]: Completely dissolved; Comments (solubility on preparation) [7]: Completely dissolved.; Solubility [mg per ml 'as is'] [7]: 2.28 mg per ml ‘as is’; Solubility [μmol per ml] [7]: 1.002 μmol per ml; Solubility after 24 Hours [7]: Completely dissolved.; solubility [10]: ≥ 4570 µg/mL; solubility [11]: ≥ 8630 µg/mL; solubility [12]: ≥ 4880 µg/mL; solubility [13]: ≥ 1910 µg/mL; solubility [14]: ≥ 8540 µg/mL |
| PAARMFKAFILEGDKLVPK [Bir02J] | Completely dissolved | 23.60 | 9.069 | Completely dissolved | 11.12 | 4.273 | Completely dissolved | 12.31 | 4.730 | Completely dissolved | Completely dissolved in | 0.38 | 0.147 | Precipitated out, | 0.39 | 0.148 | 0.34 | 0.132 | ≥ 9110 | ≥ 10100 | Commute (solubility on preparation) [2]: Completely dissolved; Solubility after 24 Hours [2]: Completely dissolved; Solubility [mg per ml] [4]: 0.314 mg per ml; Comments (solubility on preparation) [5]: Completely dissolved in; Solubility after 24 Hours [5]: Precipitated out,; Comments (solubility on preparation) [6]: Completely dissolved in; Solubility after 24 Hours [6]: Precipitated out,; Comments (solubility on preparation) [7]: Completely dissolved in; Solubility [mg per ml 'as is'] [7]: 0.39 mg per ml ‘as is’; Solubility [μmol per ml] [7]: 0.150 μmol per ml; Solubility after 24 Hours [7]: Precipitated out,; solubility [11]: ≥ 315 µg/mL; solubility [12]: ≥ 281 µg/mL; solubility [13]: ≥ 320 µg/mL; solubility [14]: ≥ 19300 µg/mL |

Reference: patent US9017689B2, “Peptides for vaccine against birch allergy” (Circassia Limited, priority 2010, dated 2015)
